Laboratory results reported in patent US11046709B2, “Fused 1,4-diazepines as BET bromodomain inhibitors” (THE REGENTS OF THE UNIVERSITY OF MICHIGAN, priority 2017, dated 2021).
pIC50: −log10 of the molar value. Like-named read-outs stand apart in the source and are kept apart here.

Tests used:
MDA-MB-231 = assay: Cell growth inhibition, 4-day proliferation assay, MDA-MB-231; type: cell-based; conditions: Homo sapiens, MDA-MB-231; WST-8 assay, Table 7; read-out: Cell growth inhibition (IC50 (nM)) MDA-MB-231
Procedure, shortened: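 WST-8 colorimetric read-out (absorbance 450 nm after 1-2 h) after 4-day compound exposure of 3,000-10,000 cells/well at 37 °C; IC50 from variable-slope sigmoid fit of DMSO-normalized signal.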

recombinant BRD4 BD2 = biological target: T1, recombinant BRD4 BD2 (Homo sapiens, UniProt O60885); assay: Competitive fluorescence-polarization (FP) binding assay, BRD4 BD2
T1 construct: for recombinant BRD4 BD1 and BRD4 BD2 proteins

MOLM-13 = assay: Cell growth inhibition, 4-day proliferation assay, MOLM-13; type: cell-based; conditions: Homo sapiens
BRD2 BD1 = BRD2 BD1 (Homo sapiens, UniProt P25440); assay: Competitive FP binding assay, BRD2 BD1; conditions: Table 8, read-out: IC50 (nM) in FP assays BRD2 BD1
Description: (§1) Fluorescence Polarization (FP) competitive binding studies were carried out using a FAM labeled fluorescent probe, see, e.g., Cpd. No. 350 of US 2014/0256706, to determine binding affinities of representative Compounds of the Disclosure for recombinant BRD4 BD1 and BRD4 BD2 proteins. Equilibrium dissociation constants (Kd) values of the fluorescent probe to BRD4 BD1 and BD2 proteins were determined from protein saturation experiments by monitoring the total fluorescence polarization of mixtures composed with the fluorescent probe at a fixed concentration and proteins with increasing concentrations up to full saturation. Serial dilutions of testing proteins were mixed with the fluorescent probe to a final volume of 200 μl in the assay buffer (100 mM phosphate buffer, pH=6.5, 0.01% Triton X-100 (Sigma, 282103) being added right before assays). Final fluorescent probe concentration was 1.5 nM for both proteins. Plates were incubated at room temperature for 30 minutes with gentle shaking to assure equilibrium. FP values in millipolarization units (mP) were measured using the Infinite M-1000 plate reader (Tecan U.S., Research Triangle Park, N.C.) in Microfluor 1 96-well, black, round-bottom plates (Thermo Scientific, Waltham, Mass.) at an excitation wavelength of 485 nm and an emission wavelength of 530 nm. Kd values of the fluorescent probe, which were calculated by fitting the sigmoidal dose-dependent FP increases as a function of protein concentrations using Graphpad Prism 6.0 software (Graphpad Software, San Diego, Calif.), are 5.5 and 3.0 nM to BDR4 BD1 and 2, respectively.
(§2) The IC50 and Ki values of compounds were determined in a competitive binding experiment. See US 2014/0256706. Mixtures of 10 μl of the tested compounds in assay buffer with 40% Ethylene Glycol and 190 μl of preincubated protein/probe complex solution in the assay buffer (100 mM potassium phosphate, pH 6.5, 0.01% Triton X-100) were added into assay plates which were incubated at room temperature for 30 minutes with gentle shaking. Final concentrations of proteins were 10 and 6 nM in assays for BRD4 BD1 and BD2, respectively. Final probe concentration is 1.5 nM in both assays. […] FP values were measured as described above. IC50 values were determined by nonlinear regression fitting of the competition curves. Instead of being calculated from IC50 values as described before. […]
(§3) For several representative compounds in Table 5, their binding affinities to BRD2 BD1 and BD2 proteins, and BRD3 BD1 and BD2 proteins were determined using the Competitive Fluorescence-Polarization (FP) Assays described in Example 6, with the data included in Table 8.

RS4;11 = assay: Cell growth inhibition, 4-day proliferation assay, RS4;11; type: cell-based; conditions: Homo sapiens
Description: The effect of representative Compounds of the Disclosure on cell viability was determined in a 4-day proliferation assay. Cells were maintained in the appropriate culture medium with 100/0 FBS at 37° C. and an atmosphere of 5% CO2. All the cell lines were used within three months of thawing fresh vials.
In general, cells were seeded in 96-well flat bottom (Corning COSTAR, Corning, N.Y., cat #3595) or white opaque cell culture plates (BD Falcon, cat #353296) at a density of 3,000-10,000 cells/well in 75 μl of culture medium. Compounds were serially diluted in the appropriate medium, and 75 μl of the diluted compounds were added to the appropriate wells of the cell plate. After the addition of compounds, the cells were incubated at 37° C. in an atmosphere of 5% CO2 for 4 days. Cell viability was determined using the CellTiter-Glo® Luminescent Cell Viability Assay Kit (Promega, Madison, Wis.) for leukemia cells and WST (2-(2-methoxy-4-nitrophenyl)-3-(4-nitrophenyl)-5-(2,4-disulfophenyl)-2H-tetrazolium, monosodium salt) Cell Counting-8 Kit (Dojindo Molecular Technologies, Inc., Rockville, Md.) for adherent cells according to the manufacturers' instructions.
For WST assay (adherent cells), WST-8 reagent was added to each well at a final concentration of 10% (v/v), and then the plates were incubated at 37° C. for 1-2 hours for color development. The absorbance was measured at 450 nm using a SPECTRAmax PLUS plate reader (Molecular Devices, Sunnyvale, Calif.). The readings were normalized to the DMSO-treated cells and the half maximal inhibitory concentration (IC50) was calculated by nonlinear regression (four parameters sigmoid fitted with variable slope, least squares fit, and no constraint) analysis using the GraphPad Prism 5 software (GraphPad Software, La Jolla, Calif.).
For CellTiter-Glo assay (suspension cells), 100 μl of CellTiter-Glo® Reagent was added to each well, and then the plates were incubated at room temperature for 10-20 minutes. The luminescent signal was measured using a Tecan Infinite M1000 multimode microplate reader (Tecan, Morrisville, N.C.). The readings were normalized to the DMSO-treated cells and the IC50 was calculated by nonlinear regression (four parameters sigmoid fitted with variable slope, least squares fit, and no constraint) analysis using the GraphPad Prism 5 software. See US 2014/0256706.
For a number of representative compounds in Table 5, their IC50 values in cell growth inhibition activity in the RS4;11 and MOLM-13 human leukemia cell lines and the MDA-MB-231 breast cancer cell line were evaluated using the WST-8 assay described in EXAMPLE 7, with the data shown in Table 7.

BRD2 BD2 = BRD2 BD2 (Homo sapiens, UniProt P25440); assay: Competitive FP binding assay, BRD2 BD2; conditions: Table 8, read-out: IC50 (nM) in FP assays BRD2 BD2
Description: as §1, §2, §3

BRD3 BD2 = BRD3 BD2 (Homo sapiens, UniProt Q15059); assay: Competitive FP binding assay, BRD3 BD2; conditions: Table 8, read-out: IC50 (nM) in FP assays BRD3 BD2
Description: as §1, §2, §3

[1] = Plasma exposure after oral gavage in mice, LC-MS/MS; type: in vivo; conditions: mouse, plasma, mice, oral gavage 25 mg/kg; for concentration at 1 h: read-out: Plasma concentration (ng/mL) 1 h; for concentration at 3 h: read-out: Plasma concentration (ng/mL) 3 h; for concentration at 6 h: read-out: Plasma concentration (ng/mL) 6 h
Description: For a number of representative compounds in Table 5, their plasma exposures with oral administration in mice via oral gavage were determined by LC-MS/MS, with the data shown in Table 9.

BRD3 BD1 = BRD3 BD1 (Homo sapiens, UniProt Q15059); assay: Competitive FP binding assay, BRD3 BD1; conditions: Table 8, read-out: IC50 (nM) in FP assays BRD3 BD1
Description: as §1, §2, §3

recombinant BRD4 BD1 = biological target: T2, recombinant BRD4 BD1 (Homo sapiens, UniProt O60885); assay: Competitive fluorescence-polarization (FP) binding assay, BRD4 BD1
T2 construct: for recombinant BRD4 BD1 and BRD4 BD2 proteins

[2] = competitive FP, Table 6, read-out: IC50 as determinined in FP assays BRD4 BD2
[3] = MOLM-13, WST-8 assay, Table 7, read-out: Cell growth inhibition (IC50 (nM)) MOLM-13
[4] = RS4-11, WST-8 assay, Table 7, read-out: Cell growth inhibition (IC50 (nM)) RS4;11
[5] = competitive FP, Table 6, read-out: IC50 as determinined in FP assays BRD4 BD1

Chain of BRD3 BD2 (Q15059 306-415 limits assumed): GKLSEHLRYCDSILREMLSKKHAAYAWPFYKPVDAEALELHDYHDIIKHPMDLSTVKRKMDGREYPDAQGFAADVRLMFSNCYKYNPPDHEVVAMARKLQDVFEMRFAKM
Chain of BRD2 BD1 (P25440 74-180 limits assumed): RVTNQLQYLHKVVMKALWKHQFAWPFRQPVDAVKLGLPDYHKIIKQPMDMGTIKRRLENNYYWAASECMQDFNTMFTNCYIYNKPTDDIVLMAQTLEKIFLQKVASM
Chain of BRD3 BD1 (Q15059 34-140 limits assumed): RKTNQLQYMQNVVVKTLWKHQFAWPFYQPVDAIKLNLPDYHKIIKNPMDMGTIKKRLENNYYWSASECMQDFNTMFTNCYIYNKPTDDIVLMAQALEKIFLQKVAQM
Chain of BRD2 BD2 (P25440 344-453 limits assumed): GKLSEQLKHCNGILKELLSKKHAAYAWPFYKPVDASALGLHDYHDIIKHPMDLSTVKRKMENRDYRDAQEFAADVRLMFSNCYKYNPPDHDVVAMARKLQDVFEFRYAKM

Row | SMILES | IC50 (MDA-MB-231) | pIC50 (recombinant BRD4 BD2; [2]) | IC50 (MOLM-13; [3]) | IC50 (BRD2 BD1) | IC50 (RS4;11; [4]) | IC50 (BRD2 BD2) | IC50 (BRD3 BD2) | concentration at 1 h [1] | concentration at 3 h [1] | concentration at 6 h [1] | IC50 (BRD3 BD1) | pIC50 (recombinant BRD4 BD1; [5]) | pIC50 (recombinant BRD4 BD2) | IC50 (MOLM-13; MOLM-13, 96 h, read-out: Cell IC50 (nM) MOLM13) | IC50 (RS4;11; RS4-11, 96 h, read-out: Cell IC50 (nM) RS4;11) | pIC50 (recombinant BRD4 BD1)
1 | Cc1nnc(C[C@@H]2N=C(c3ccc(Cl)cc3)c3c(sc(C#CC4CCOCC4)c3C)-n3c(C)nnc32)o1 [Compound 145, (S)-2-((4-(4-chlorophenyl)-3,9-dimethyl-2-((tetrahydro-2H-pyran-4-yl)ethynyl)-6H-thieno[3,2-f][1,2,4]triazolo[4,3-a][1,4]diazepin-6-yl)methyl)-5-methyl-1,3,4-oxadiazole] | 105 nM | 7.32 | 11.3 nM | 26 nM | 13.3 nM | 50.7 nM | 161 nM | 6620 ng/mL | 4880 ng/mL | 629 ng/mL | 38.6 nM | 7.79 | – | – | – | –
2 | Cc1c(C#CC2CCOCC2)sc2c1C(c1ccc(Cl)cc1)=N[C@@H](CC(=O)N1CCC(C)(O)CC1)c1nnc(C)n1-2 [Compound 157, (S)-2-(4-(4-chlorophenyl)-3,9-dimethyl-2-((tetrahydro-2H-pyran-4-yl)ethynyl)-6H-thieno[3,2-f][1,2,4]triazolo[4,3-a][1,4]diazepin-6-yl)-1-(4-hydroxy-4-methylpiperidin-1-yl)ethan-1-one] | – | 7.30 | 25.4 nM | 39.3 nM | 37 nM | 146 nM | 120 nM | 4630 ng/mL | 3760 ng/mL | 1190 ng/mL | 85.1 nM | 7.26 | – | – | – | –
3 | Cc1c(C#CC2CCOCC2)sc2c1C(c1ccc(Cl)cc1)=N[C@@H](CC(=O)N1CC(C)(O)C1)c1nnc(C)n1-2 [Compound 158, (S)-2-(4-(4-chlorophenyl)-3,9-dimethyl-2-((tetrahydro-2H-pyran-4-yl)ethynyl)-6H-thieno[3,2-f][1,2,4]triazolo[4,3-a][1,4]diazepin-6-yl)-1-(3-hydroxy-3-methylazetidin-1-yl)ethan-1-one] | – | 7.16 | 24.5 nM | 40.2 nM | 43 nM | 182 nM | 220 nM | 3380 ng/mL | 1810 ng/mL | 946 ng/mL | 63.7 nM | 7.32 | – | – | – | –
4 | Cc1c(C#CC2CCOCC2)sc2c1C(c1ccc(Cl)cc1)=N[C@@H](CC(=O)N1CCC(O)CC1)c1nnc(C)n1-2 [Compound 159, (S)-2-(4-(4-chlorophenyl)-3,9-dimethyl-2-((tetrahydro-2H-pyran-4-yl)ethynyl)-6H-thieno[3,2-f][1,2,4]triazolo[4,3-a][1,4]diazepin-6-yl)-1-(4-hydroxypiperidin-1-yl)ethan-1-one] | – | 7.32 | 35.4 nM | 34.4 nM | 39.5 nM | 143 nM | 127 nM | 3460 ng/mL | 2120 ng/mL | 1700 ng/mL | 76.5 nM | 7.44 | – | – | – | –
5 | Cc1c(C#Cc2cnn(C)c2)sc2c1C(c1ccc(Cl)cc1)=NCc1nnc(C)n1-2 [compound 23, 4-(4-chlorophenyl)-3,9-dimethyl-2-((1-methyl-1H-pyrazol-4-yl)ethynyl)-6H-thieno[3,2-f][1,2,4]triazolo[4,3-a][1,4]diazepine] | – | – | – | – | – | – | – | – | – | – | – | – | 7.20 | > 100 nM | > 100 nM | 7.84
